# Data reported in paper PMC7235042, “Venturicidin A, A Membrane-active Natural Product Inhibitor of ATP synthase Potentiates Aminoglycoside Antibiotics” (Scientific Reports, 2020).
# Biological target: T1, AAC(6′)-Ie-APH(2′′)-Ia (Staphylococcus aureus, UniProt P0A0C1)
# T1 construct: gene aacA-aphD; purified bifunctional enzyme (AAC and APH domains)
# Test: absorbance at […] nm, DTNB detection of released CoA-SH
# Format: biochemical
# Settings: AAC activity; co-substrate gentamicin 112 µg/mL
# T1 sequence (P0A0C1 whole entry, the tested form may be a part): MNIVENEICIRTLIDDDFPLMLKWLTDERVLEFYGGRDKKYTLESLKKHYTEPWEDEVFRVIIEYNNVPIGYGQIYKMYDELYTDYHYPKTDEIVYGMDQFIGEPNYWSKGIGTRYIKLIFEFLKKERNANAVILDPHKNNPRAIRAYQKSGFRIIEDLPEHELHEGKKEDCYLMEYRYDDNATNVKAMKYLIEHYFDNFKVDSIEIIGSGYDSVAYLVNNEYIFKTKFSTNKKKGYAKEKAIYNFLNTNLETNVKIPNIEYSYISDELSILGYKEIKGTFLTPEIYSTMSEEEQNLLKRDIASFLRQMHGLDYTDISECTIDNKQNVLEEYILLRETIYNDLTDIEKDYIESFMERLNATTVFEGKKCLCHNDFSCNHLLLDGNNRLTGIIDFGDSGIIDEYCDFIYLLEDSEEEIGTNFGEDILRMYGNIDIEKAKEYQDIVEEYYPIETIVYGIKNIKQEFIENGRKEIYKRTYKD
compound,measurement,value
CC(=O)SCCNC(=O)CCNC(=O)[C@H](O)C(C)(C)COP(=O)(O)OP(=O)(O)OC[C@H]1O[C@@H](n2cnc3c(N)ncnc32)[C@H](O)[C@@H]1OP(=O)(O)O [acetyl CoA],"absorbance at 412 nm, DTNB detection of released CoA-SH",CoA–SH that is derived from acetyl CoA after antibiotic acetylation
